{"source": "patent US11644474B2", "about": "“Use of macimorelin in assessing growth hormone deficiency in children” (Æterna Zentaris GmbH, priority 2020, dated 2023)", "assay_type_in_all_cases": "in vivo, human (paediatric subjects with suspected GHD)", "key": {"[1]": {"experiment": "Macimorelin plasma pharmacokinetics after single oral dose (Study AEZS-130-P01)", "settings": "for half-life: read-out: mean elimination half-life (converted); for Cmax: n=8 children; for AUC(0-t): read-out: mean AUC0-6 of macimorelin", "procedure": "(§1) This was an open-label, group comparison, dose escalation trial to investigate the safety, tolerability, pharmacokinetics and pharmacodynamics of single-dose 0.25, 0.5, and 1 mg/kg oral macimorelin acetate in paediatric subjects with suspected GHD. The macimorelin GHST was administered between two standard GHST, conducted as per local clinical practice, with a recovery period of 7-28 days between tests. For the purposes of obtaining a detailed macimorelin PK profile in children, blood samples were collected pre-dose (±15 min) and 15, 30, 45, 60, 90, 120, and 360 minutes after macimorelin acetate intake.\n(§2) The main features of Study P01 are summarized as follows: • Sequential cohorts of trial participants received macimorelin at ascending single oral doses: 0.25 mg/kg body weight in Cohort 1 (C1), 0.5 mg/kg body weight in Cohort 2 (C2), and 1 mg/kg body weight in Cohort 3 (C3). • For determination of macimorelin PK/PD: blood sampling at pre-dose, then 15, 30, 45, 60, 90, 120, and 360 minutes after the administration of macimorelin. • Two standard GHSTs (sGHSTs) had to be performed in a patient according to local practice. The related sGHST agents were considered as ‘background’ and not as IMPs. (Accepted test agents: insulin (insulin tolerance test or ITT), arginine, arginine/growth hormone releasing hormone (GHRH), clonidine, glucagon, L-dopa). Results\nMacimorelin plasma concentrations: the analysis of plasma samples for macimorelin concentration was carried out at a central laboratory, Prolytic GmbH, Germany, using a validated liquid chromatography-mass spectrometry (LCMS/MS) method with a detection limit of 0.2 ng/mL (Franz, 2005).\nPreliminary pharmacokinetics (PK) were determined by: time of maximum measured concentration (tmax) and maximum concentration (Cmax) of macimorelin plasma concentrations in the sampling period."}, "[2]": {"tested_on": "GH secretion", "experiment": "Macimorelin growth hormone stimulation test (GHST): serum GH after oral macimorelin (PD)", "settings": "for Peak GH after Macimorelin GHST: individual patients, serum", "procedure": "as §1, §2\nGH serum concentration: the analysis of serum samples for GH concentration was carried out at a central laboratory by a validated immunochemiluminometric assay (IDS-iSYS Human Growth Hormone (hGH), Immunodiagnostic Systems Ltd [UK]) (Manolopoulou et al., 2012). This assay is standardized to the recombinant growth hormone calibration standard WHO 98/574, and complies with recommendations on assay standardization as outlined by Clemmons (Clemmons, 2011).\nThe analytical laboratory applied for GH was: Central Laboratory Synevo Łódź, Krakusa Str. 28, 93-515 Łódź. Poland. The lower limit of quantification was <0.05 ng/mL."}, "[3]": {"experiment": "Safety and tolerability of single oral macimorelin (adverse events, questionnaires, safety laboratory, ECG)", "settings": "all three dosing cohorts, 0.25-1 mg/kg single oral dose; for safety and tolerability: questionnaires, safety laboratory, ECG", "procedure": "as §1"}, "[4]": {"settings": "human, C1, 0.25 mg/kg single oral dose, plasma"}, "[5]": {"settings": "human, C2, 0.5 mg/kg single oral dose, plasma"}, "[6]": {"settings": "human, C3, 1 mg/kg single oral dose, plasma"}}, "note": "Values joined by “and” are separate entries in the source; they are usually repeats but may differ in a detail not shown here. Identical values can stand only once. “Also recorded” adds a separate entry of the source. Like-named read-outs stand apart in the source and are kept apart here.", "data": [{"smiles": "CC(C)(N)C(=O)N[C@H](Cc1c[nH]c2ccccc12)C(=O)N[C@H](Cc1c[nH]c2ccccc12)NC=O", "note": "[macimorelin]", "values": [{"measurement": "change of macimorelin AUC with dose", "setting": "[1]; 0.25, 0.5, 1 mg/kg oral", "value": "increased with dose; also recorded: dose-dependent increase; also recorded: increases with the macimorelin dose"}, {"measurement": "change of macimorelin Cmax with dose", "setting": "[1]; 0.25, 0.5, 1 mg/kg oral", "value": "dose-dependent increase; also recorded: dose-proportional increase"}, {"measurement": "change of macimorelin plasma concentrations with dose", "setting": "[1]; 0.25, 0.5, 1 mg/kg oral, FIG. 1", "value": "dose-dependent increase with high inter-individual variability"}, {"measurement": "time at which maximum plasma concentrations for macimorelin were mainly observed", "setting": "[1]; all cohorts, 0.25-1 mg/kg oral", "value": "30 to 45", "unit": "min"}, {"measurement": "half-life", "setting": "[1]; human, plasma, C1, 0.25 mg/kg single oral dose", "value": 1.22, "unit": "h"}, {"measurement": "half-life", "setting": "[1]; human, plasma, C2, 0.5 mg/kg single oral dose", "value": 1.61, "unit": "h"}, {"measurement": "half-life", "setting": "[1]; human, plasma, C3, 1 mg/kg single oral dose", "value": 1.71, "unit": "h"}, {"measurement": "Tmax", "setting": "[1]; human, plasma, all three groups C1-C3, 0.25-1 mg/kg oral", "value": "0.5 to 0.75", "unit": "h"}, {"measurement": "Cmax", "setting": "[1]; [4]", "value": 3.46, "unit": "ng/mL"}, {"measurement": "AUC(0-t)", "setting": "[1]; [4]", "value": 6.69, "unit": "ng·h/mL"}, {"measurement": "Cmax", "setting": "[1]; [5]", "value": 8.13, "unit": "ng/mL"}, {"measurement": "AUC(0-t)", "setting": "[1]; [5]", "value": 18, "unit": "ng·h/mL"}, {"measurement": "Cmax", "setting": "[1]; [6]", "value": 12.9, "unit": "ng/mL"}, {"measurement": "AUC(0-t)", "setting": "[1]; [6]", "value": 30.9, "unit": "ng·h/mL"}, {"measurement": "time within which peak GH levels were observed", "setting": "[2]; C1, 0.25 mg/kg oral", "value": "0.5 to 1", "unit": "h"}, {"measurement": "mean Tmax of peak GH", "setting": "[2]; C1, 0.25 mg/kg oral (SD 11.3)", "value": 0.875, "unit": "h"}, {"measurement": "Peak GH after Macimorelin GHST", "setting": "[2]; C1, 0.25 mg/kg oral", "value": "8.61 ng/mL and 0.51 ng/mL and 21.73 ng/mL and 5.22 ng/mL and 10.03 ng/mL and 14.07 ng/mL and 9.78 ng/mL and 8.38 ng/mL"}, {"measurement": "time within which peak GH levels were observed", "setting": "[2]; C2, 0.5 mg/kg oral", "value": "0.25 to 1", "unit": "h"}, {"measurement": "mean Tmax of peak GH", "setting": "[2]; C2, 0.5 mg/kg oral (SD 13.9)", "value": 0.625, "unit": "h"}, {"measurement": "Peak GH after Macimorelin GHST", "setting": "[2]; C2, 0.5 mg/kg oral", "value": "5.06 ng/mL and 20.73 ng/mL and 7.41 ng/mL and 10.43 ng/mL and 21.36 ng/mL and 16.41 ng/mL and 9.67 ng/mL and 27.42 ng/mL"}, {"measurement": "time within which peak GH levels were observed", "setting": "[2]; C3, 1 mg/kg oral", "value": "0.5 to 0.75", "unit": "h"}, {"measurement": "mean Tmax of peak GH", "setting": "[2]; C3, 1 mg/kg oral (SD 8.0)", "value": 0.625, "unit": "h"}, {"measurement": "stimulation of GH secretion", "setting": "[2]; C3, 1 mg/kg oral, 8 patients", "value": "stimulated evidently in all 8 patients; also recorded: evident stimulation of GH secretion in all 8 patients"}, {"measurement": "Peak GH after Macimorelin GHST", "setting": "[2]; C3, 1 mg/kg oral", "value": "17.13 ng/mL and 14.46 ng/mL and 59.73 ng/mL and 49.16 ng/mL and 25.07 ng/mL and 14.63 ng/mL and 11.35 ng/mL and 44.73 ng/mL"}, {"measurement": "mean Tmax of GH release", "setting": "[2]; all cohorts C1-C3", "value": "0.5 to 1", "unit": "h"}, {"measurement": "time of maximum GH release after macimorelin administration", "setting": "[2]; all cohorts C1-C3", "value": "0.25 to 2", "unit": "h"}, {"measurement": "time at which peak GH levels were mainly observed following macimorelin intake", "setting": "[2]; all three cohorts", "value": "30 to 60", "unit": "min"}, {"measurement": "adverse events related to macimorelin", "setting": "[3]; 24 children", "value": "none were considered related to the macimorelin test; also recorded: No adverse event was reported in relation to macimorelin"}, {"measurement": "safety and tolerability", "setting": "[3]", "value": "excellent safety and tolerability"}, {"measurement": "safety and tolerability", "setting": "[3]; listed as Macimorelin acetate", "value": "safe and well tolerated in all dosing cohorts"}]}]}
